Data reported in US12077503B2, “Substituted cyclic amides and their use as herbicides” (FMC CORPORATION, priority 2015, dated 2024).

Experiments:
Type in all cases: in vivo
[1] = tested on: velvetleaf (Abutilon theophrasti); assay: Test G Post-Emergence Protocol; settings: for Velvetleaf damage rating: 15.625 g ai/ha, evaluated after 13 days (100=total damage to plant; 0=no damage to plant); for Velvetleaf damage rating (100=total damage to plant; 0=no damage to plant): 62.5 g ai/ha; for Velvetleaf damage rating (100=total damage to plant; 0=no damage to plant) / damage to plant, Velvetleaf (100=total damage to plant; 0=no damage to plant): evaluated after 13 days; for damage to plant, Velvetleaf (100=total damage to plant; 0=no damage to plant): 250 g ai/ha
Method: (§1) Seeds of corn (Zea mays), giant foxtail (Setaria faberi), barnyardgrass (Echinochloa crus-galli), ivy-leaved morning glory (Ipomoea hederacea), redroot pigweed (Amaranthus retroflexus) and velvetleaf (Abutilon theophrasti) were sown in standard soil in pots. After cultivation for 8 days under controlled conditions in a glasshouse (at 24/16° C., day/night; 14 hours light; 65% humidity), the plants were sprayed with an aqueous spray solution derived from the formulation of the technical active ingredient in acetone/water (50:50) solution containing 0.5% Tween 20 (polyoxyethylene sorbitan monolaurate, CAS RN 9005-64-5) to give a final dose of 15.625, 62.5 or 250 g/ha of test compound.
(§2) The test plants were then grown on under controlled conditions in a glasshouse (at 24/16° C., day/night; 14 hours light; 65% humidity) and watered twice daily. After 13 days the test was evaluated (100=total damage to plant; 0=no damage to plant). A dash (-) means no test result.

[2] = tested on: barnyardgrass (Echinochloa crus-galli); assay: Test G Post-Emergence Protocol; settings: for Barnyardgrass damage rating: 15.625 g ai/ha, evaluated after 13 days (100=total damage to plant; 0=no damage to plant); for Barnyardgrass damage rating (100=total damage to plant; 0=no damage to plant): 62.5 g ai/ha; for Barnyardgrass damage rating (100=total damage to plant; 0=no damage to plant) / damage to plant, Barnyardgrass (100=total damage to plant; 0=no damage to plant): evaluated after 13 days; for damage to plant, Barnyardgrass (100=total damage to plant; 0=no damage to plant): 250 g ai/ha
Method: as §1, §2

[3] = tested on: redroot pigweed (Amaranthus retroflexus); assay: Test G Post-Emergence Protocol; settings: for Pigweed, Redroot damage rating (100=total damage to plant; 0=no damage to plant): 62.5 g ai/ha
Method: as §1, §2

corn (Zea mays) [4] = assay: Test G Post-Emergence Protocol; settings: for damage to plant, Corn (100=total damage to plant; 0=no damage to plant): 250 g ai/ha
Method: as §1, §2

[5] = tested on: giant foxtail (Setaria faberi); assay: Test G Post-Emergence Protocol; settings: for Foxtail, Giant damage rating: 15.625 g ai/ha, evaluated after 13 days (100=total damage to plant; 0=no damage to plant)
Method: as §1, §2

[6] = tested on: ivy-leaved morning glory (Ipomoea hederacea); assay: Test G Post-Emergence Protocol; settings: for Morningglory, Ivy-leaved damage rating: 15.625 g ai/ha, evaluated after 13 days (100=total damage to plant; 0=no damage to plant); for Morningglory, Ivy-leaved damage rating (100=total damage to plant; 0=no damage to plant): 62.5 g ai/ha; for Morningglory, Ivy-leaved damage rating (100=total damage to plant; 0=no damage to plant) / damage to plant, Morningglory, Ivy-leaved (100=total damage to plant; 0=no damage to plant): evaluated after 13 days; for damage to plant, Morningglory, Ivy-leaved (100=total damage to plant; 0=no damage to plant): 250 g ai/ha
Method: as §1, §2

[7] = tested on: velvetleaf (Abutilon theophrasti); assay: Test G Pre-Emergence Protocol; settings: evaluated after 13 days; for plant damage rating, Velvetleaf: 62.5 g ai/ha, 100=total damage to plant, 0=no damage to plant
Method: as §1, with “one day” for “8 days”
as §2

[8] = tested on: barnyardgrass (Echinochloa crus-galli); assay: Test G Pre-Emergence Protocol; settings: evaluated after 13 days
Method: as §1, with “one day” for “8 days”
as §2

[9] = tested on: redroot pigweed (Amaranthus retroflexus); assay: Test G Pre-Emergence Protocol; settings: evaluated after 13 days; for plant damage rating, Pigweed, Redroot: 62.5 g ai/ha, 100=total damage to plant, 0=no damage to plant
Method: as §1, with “one day” for “8 days”
as §2

corn (Zea mays) [10] = assay: Test G Pre-Emergence Protocol; settings: evaluated after 13 days
Method: as §1, with “one day” for “8 days”
as §2

[11] = tested on: giant foxtail (Setaria faberi); assay: Test G Pre-Emergence Protocol; settings: evaluated after 13 days
Method: as §1, with “one day” for “8 days”
as §2

[12] = tested on: ivy-leaved morning glory (Ipomoea hederacea); assay: Test G Pre-Emergence Protocol; settings: evaluated after 13 days; for Morning-glory, Ivy-leaved damage rating (100=total damage to plant; 0=no damage to plant): 15.625 g ai/ha; for plant damage rating, Morningglory, Ivy-leaved: 62.5 g ai/ha, 100=total damage to plant, 0=no damage to plant
Method: as §1, with “one day” for “8 days”
as §2

[13] = 15.625 g ai/ha, evaluated after 13 days (100=total damage to plant; 0=no damage to plant)
[14] = 250 g ai/ha, evaluated after 13 days
[15] = 62.5 g ai/ha, evaluated after 13 days
[16] = 62.5 g ai/ha, 100=total damage to plant, 0=no damage to plant

SMILES	Velvetleaf damage rating [1]	Velvetleaf damage rating (100=total damage to plant; 0=no damage to plant) [1]	damage to plant, Velvetleaf (100=total damage to plant; 0=no damage to plant) [1]	Barnyardgrass damage rating [2]	Barnyardgrass damage rating (100=total damage to plant; 0=no damage to plant) [2]	damage to plant, Barnyardgrass (100=total damage to plant; 0=no damage to plant) [2]	Pigweed, Redroot damage rating (100=total damage to plant; 0=no damage to plant) ([3]; evaluated after 13 days)	damage to plant, Corn (100=total damage to plant; 0=no damage to plant) (corn (Zea mays) [4]; evaluated after 13 days)	Foxtail, Giant damage rating [5]	Morningglory, Ivy-leaved damage rating [6]	Morningglory, Ivy-leaved damage rating (100=total damage to plant; 0=no damage to plant) [6]	damage to plant, Morningglory, Ivy-leaved (100=total damage to plant; 0=no damage to plant) [6]	Velvetleaf damage rating (100=total damage to plant; 0=no damage to plant) ([7]; 15.625 g ai/ha)	plant damage rating, Velvetleaf [7]	Velvetleaf damage rating (100=total damage to plant; 0=no damage to plant) ([7]; 250 g ai/ha)	Pigweed, Redroot damage rating (100=total damage to plant; 0=no damage to plant) ([9]; 15.625 g ai/ha)	plant damage rating, Pigweed, Redroot [9]	Corn damage rating (100=total damage to plant; 0=no damage to plant) (corn (Zea mays) [10]; 15.625 g ai/ha)	Morning-glory, Ivy-leaved damage rating (100=total damage to plant; 0=no damage to plant) [12]	plant damage rating, Morningglory, Ivy-leaved [12]	further results
CN1CC(c2ccc(C(F)(F)F)cc2)C(C(=O)Nc2ccncc2[N+](=O)[O-])C1=O (racemic) [Compound 1568]	0	0	0	0	10	20	0	10	0	0	0	0	0	0	0	0	0	0	0	0	Pigweed, Redroot damage rating [3, 13]: 0; damage to plant, Pigweed, Redroot (100=total damage to plant; 0=no damage to plant) [3, 14]: 0; Corn damage rating (corn (Zea mays) [4]; [13]): 0; Corn damage rating (100=total damage to plant; 0=no damage to plant) (corn (Zea mays) [4]; [15]): 0; Foxtail, Giant damage rating (100=total damage to plant; 0=no damage to plant) [5, 15]: 0; damage to plant, Foxtail, Giant (100=total damage to plant; 0=no damage to plant) [5, 14]: 0; Barnyardgrass damage rating (100=total damage to plant; 0=no damage to plant) ([8]; 15.625 g ai/ha): 0; plant damage rating, Barnyardgrass [8, 16]: 0; Barnyardgrass damage rating (100=total damage to plant; 0=no damage to plant) ([8]; 250 g ai/ha): 0; Pigweed, Redroot damage rating (100=total damage to plant; 0=no damage to plant) ([9]; 250 g ai/ha): 0; plant damage rating, Corn (corn (Zea mays) [10]; [16]): 0; Corn damage rating (100=total damage to plant; 0=no damage to plant) (corn (Zea mays) [10]; 250 g ai/ha): 0; Foxtail, Giant damage rating (100=total damage to plant; 0=no damage to plant) ([11]; 15.625 g ai/ha): 0; plant damage rating, Foxtail, Giant [11, 16]: 0; Foxtail, Giant damage rating (100=total damage to plant; 0=no damage to plant) ([11]; 250 g ai/ha): 0; Morningglory, Ivy-leaved damage rating (100=total damage to plant; 0=no damage to plant) ([12]; 250 g ai/ha): 0
CN1C[C@H](c2ccc(C(F)(F)F)cc2)[C@@H](C(=O)Nc2cccc(F)n2)C1=O (racemic) [Compound 1428]	0	0	0	20	20	40	10	20	30	10	10	20	0	0	0	0	0	50	10	10	pest or weed control at 15.625 g/ha ([3]; Amaranthus retroflexus, post-emergence, 312 h, 15.625 g ai/ha, evaluated after 13 days (100=total damage to plant; 0=no damage to plant), read-out: Pigweed, Redroot damage rating): 10%; pest or weed control at 250 g/ha ([3]; Amaranthus retroflexus, post-emergence, 312 h, 250 g ai/ha, evaluated after 13 days, read-out: damage to plant, Pigweed, Redroot (100=total damage to plant; 0=no damage to plant)): 40%; plant injury at 15.625 g/ha (corn (Zea mays) [4]; Zea mays, post-emergence, 312 h, 15.625 g ai/ha, evaluated after 13 days (100=total damage to plant; 0=no damage to plant), read-out: Corn damage rating): 10%; plant injury at 62.5 g/ha (corn (Zea mays) [4]; Zea mays, post-emergence, 312 h, 62.5 g ai/ha, evaluated after 13 days, read-out: Corn damage rating (100=total damage to plant; 0=no damage to plant)): 10%; pest or weed control at 62.5 g/ha ([5]; Setaria faberi, post-emergence, 312 h, 62.5 g ai/ha, evaluated after 13 days, read-out: Foxtail, Giant damage rating (100=total damage to plant; 0=no damage to plant)): 50%; pest or weed control at 250 g/ha ([5]; Setaria faberi, post-emergence, 312 h, 250 g ai/ha, evaluated after 13 days, read-out: damage to plant, Foxtail, Giant (100=total damage to plant; 0=no damage to plant)): 60%; pest or weed control at 15.625 g/ha ([8]; Echinochloa crus-galli, pre-emergence, 312 h, 15.625 g ai/ha, read-out: Barnyard grass damage rating (100=total damage to plant; 0=no damage to plant)): 50%; pest or weed control at 62.5 g/ha ([8]; Echinochloa crus-galli, pre-emergence, 312 h, 62.5 g ai/ha, 100=total damage to plant, 0=no damage to plant, read-out: plant damage rating, Barnyardgrass): 60%; pest or weed control at 250 g/ha ([8]; Echinochloa crus-galli, pre-emergence, 312 h, 250 g ai/ha, read-out: Barnyardgrass damage rating (100=total damage to plant; 0=no damage to plant)): 80%; pest or weed control at 250 g/ha ([9]; Amaranthus retroflexus, pre-emergence, 312 h, 250 g ai/ha, read-out: Pigweed, Redroot damage rating (100=total damage to plant; 0=no damage to plant)): 80%; plant injury at 62.5 g/ha (corn (Zea mays) [10]; Zea mays, pre-emergence, 312 h, 62.5 g ai/ha, 100=total damage to plant, 0=no damage to plant, read-out: plant damage rating, Corn): 20%; plant injury at 250 g/ha (corn (Zea mays) [10]; Zea mays, pre-emergence, 312 h, 250 g ai/ha, read-out: Corn damage rating (100=total damage to plant; 0=no damage to plant)): 70%; pest or weed control at 15.625 g/ha ([11]; Setaria faberi, pre-emergence, 312 h, 15.625 g ai/ha, read-out: Foxtail, Giant damage rating (100=total damage to plant; 0=no damage to plant)): 70%; pest or weed control at 62.5 g/ha ([11]; Setaria faberi, pre-emergence, 312 h, 62.5 g ai/ha, 100=total damage to plant, 0=no damage to plant, read-out: plant damage rating, Foxtail, Giant): 80%; pest or weed control at 250 g/ha ([11]; Setaria faberi, pre-emergence, 312 h, 250 g ai/ha, read-out: Foxtail, Giant damage rating (100=total damage to plant; 0=no damage to plant)): 80%; pest or weed control at 250 g/ha ([12]; Ipomoea, pre-emergence, 312 h, 250 g ai/ha, read-out: Morningglory, Ivy-leaved damage rating (100=total damage to plant; 0=no damage to plant)): 40%
CN1CC(c2ccc(C(F)(F)F)cc2)C(C(=O)Nc2cccc(Cl)c2[N+](=O)[O-])C1=O (racemic) [Compound 1639]	0	0	20	10	30	60	20	10	30	0	10	20	0	0	0	0	20	0	0	0	Pigweed, Redroot damage rating [3, 13]: 0; damage to plant, Pigweed, Redroot (100=total damage to plant; 0=no damage to plant) [3, 14]: 60; Corn damage rating (corn (Zea mays) [4]; [13]): 0; Corn damage rating (100=total damage to plant; 0=no damage to plant) (corn (Zea mays) [4]; [15]): 0; Foxtail, Giant damage rating (100=total damage to plant; 0=no damage to plant) [5, 15]: 70; damage to plant, Foxtail, Giant (100=total damage to plant; 0=no damage to plant) [5, 14]: 80; Barnyardgrass damage rating (100=total damage to plant; 0=no damage to plant) ([8]; 15.625 g ai/ha): 0; plant damage rating, Barnyardgrass [8, 16]: 10; Barnyardgrass damage rating (100=total damage to plant; 0=no damage to plant) ([8]; 250 g ai/ha): 30; Pigweed, Redroot damage rating (100=total damage to plant; 0=no damage to plant) ([9]; 250 g ai/ha): 30; plant damage rating, Corn (corn (Zea mays) [10]; [16]): 0; Corn damage rating (100=total damage to plant; 0=no damage to plant) (corn (Zea mays) [10]; 250 g ai/ha): 0; Foxtail, Giant damage rating (100=total damage to plant; 0=no damage to plant) ([11]; 15.625 g ai/ha): 30; plant damage rating, Foxtail, Giant [11, 16]: 60; Foxtail, Giant damage rating (100=total damage to plant; 0=no damage to plant) ([11]; 250 g ai/ha): 80; Morningglory, Ivy-leaved damage rating (100=total damage to plant; 0=no damage to plant) ([12]; 250 g ai/ha): 0
